From patent publication US20040091479A1, “T-cell epitope of the papillomavirus l1 and e7 protein and use thereof in diagnostics and therapy” (priority 2000, published 2004)

Columns and labels:
[1] = system: autologous peptide-loaded BLCL; experiment: Cytotoxicity test (chromium release assay) of HPV18 E786-94-specific T cells; format: cell-based, human; settings: effector to target ratio of 30:1, FIG. 17 bottom
Experimental: The predicted peptides were synthesized using standard methods (F moc method). […] For this, 1×10^5 PBMC derived from healthy, HLA-A2-positive donors were sown, in 100 μl of medium (RPMI 1640, 10% heat-inactivated AB plasma), in each well of a 96-well plate. 20 μg of peptide/ml were added to the culture medium. The cells were incubated at 37° C. and restimulated once per week with irradiated peptide-loaded autologous PBMC. The stimulator PBMC were incubated for 4 hours in medium containing 20 μg of peptide/ml. After the irradiation, they were diluted down to 1×10^4/100 μl with medium and added to the peptide-stimulated PBMC. For this, half the medium was aspirated from each well and 100 μl of the stimulator PBMC suspension were added. 10 U of IL-2/ml and 10 U of IL-7/ml were added from the 3rd stimulation onwards. From the 5th stimulation onwards, restimulation was carried out in the same manner using peptide-loaded autologous B lymphoblast cell lines (BLCL).
The cytotoxicity of HPV18 E786-94-specific T cells was determined in a chromium release assay. Autologous BLCL were used as the target cells. In each case, 5×10^5 cells were taken up in 100 μl of medium (RPMI 1640, 10% FCS) and treated with 20 μl of ^51chromium (NEN). For loading the BLCL with peptide, 50 μg of the corresponding peptide were added/ml. After that, the cells were incubated at room temperature for 2 hours while being carefully resuspended every 20-30 min. The cells were then washed 3 times with 5 ml of medium. For the sedimenting, the cells were in each case centrifuged at 1500 rpm for 5 min and then carefully resuspended. […]
The assay samples were incubated for 4 hours at 37° C., 98% atmospheric humidity and 5% CO2. […] On the following day, 150 μl of Microscint 40 scintillation fluid (Canberra-Packard, Deieich) were added and the numbers of distintegrations per minute in the individual assay samples were measured in the scintillation counter (Topcount, Canberra-Packard, Dreieich).
The specific lysis was calculated using the following formula: […]

[2] = system: T cell line generated with HeLa CD80/HLA-A2 transfectants (H7.1-A2); experiment: IFN-γ ELISpot of H7.1-A2-specific T cell line against peptide-loaded autologous PBMC; format: cell-based, human; settings: H7.1-A2-induced T cell line, FIG. 17 top
[3] = system: CVLP-stimulated CD4-positive T cells; experiment: Restimulating HPV18 CVLP-stimulated T cells with BLCL presenting pools or Q30 (example 15); format: cell-based, human
Experimental: (§1) In analogy with example 6, human T cells derived from a non-HLA-typed blood donor were stimulated, at 37° C., with HPV18L1ΔCDIE71-53DI CVLPs and HPV18L1ΔCDIE71-60DI CVLPs and harvested.
The T cells were then restimulated, at 37° C. and in 100 μl of medium, with the peptide pools from example 6 and 10^5 antigen-presenting cells (donor-identical BLCL) in the presence of 10 IU of IL2/ml. Use was made, in this connection, of quantities of the peptide pools which were such that 1 μg/ml was added in the case of each individual peptide. Cells which were only incubated with buffer served as the negative control while cells which were incubated with the HPV18 L1 or E7 peptide pool served as positive controls (upper part of FIG. 14). In the case of the lower part of FIG. 14, the T cells were restimulated, at 37° C. and in 100 μl of medium, with peptide pools F and 4 and with 1 μg of peptide Q30/ml and 10^5 antigen-presenting cells (donor-identical BLCL) in the presence of 10 IU of IL2/ml.
(§2) 1 μl of monensin was added after an hour. The cells were then incubated at 37° C. for a further 5 hours. After that, the cells were fixed and permeabilized and stained with α-human CDB/APC, with α-human CD4/PerCP and with α-human IFNγ/FITC. The labeling of the cells was examined in a FACScan Calibur and the results of the measurements were analyzed using Cellquest software.

human T cells = experiment: Summary of examples 3 to 18: epitopes recognized by human T cells; format: cell-based; settings: Table 4, HPV18 peptides, species human
LKK cells = experiment: 51Cr release: lysing HPV18 peptide-loaded LKK cells (example 17); format: cell-based, murine
Experimental: In analogy with example 4, RMA or LKK cells were radioactively labeled with ^51Cr and incubated with the peptides (Q43 and Q44 in the upper part of FIG. 16 and Q49 in the lower part of FIG. 16) which are plotted on the X axis. Cells without peptide served as negative controls. T cells which had previously been stimulated with the peptide pool were then added.
The lysis of the RMA cells or LKK cells by the T cells was measured by the release of the ^51Cr and calculated as described in example 4.

P33-loaded RMA cells = experiment: 51Cr release: lysing P33-loaded RMA cells; format: cell-based, C57BL/6 mouse
Experimental: RMA cells were incubated at 37° C. for one hour with ^51Cr, washed three times with medium and divided into 2 aliquots. 10 μg of the P33 peptide/ml were added to one aliquot of the cells while the other aliquot served as the negative control in the absence of the peptide. In each case 2000 of the cells (=target cells) were then added to 40.000 T cells (=effector cells) in a total volume of 150 μl. The T cells had previously been stimulated for 5 weeks with a mixture composed of 43 peptides (peptides 1-43, in each case 1 μg/ml).
Assay mixtures for spontaneous and maximal lysis of the cells were set up in parallel. Target cells which were incubated with culture medium were used for the spontaneous lysis. For the maximal lysis, target cells were lysed by adding 0.5% Triton X100.
The assay mixtures were incubated at 37° C. for 5 h. 50 μl volumes of the supernatants from the assay mixtures were added to Luma plates and dried overnight at room temperature. On the following morning, the quantity of radioactive ^51Cr (counts) was determined using a Canberra-Packerd B Plate Counter and related to the maximally lysed cells in the Triton assay mixture. The % specific lysis was then determined using the formula:
x=100·(counts−spontaneous counts)/(maximal counts−spontaneous counts).

[4] = system: CVLP-stimulated CD8-positive T cells; experiment: Restimulating HPV16 CVLP-stimulated T cells with P33-presenting BLCL (example 11); format: cell-based, human
Experimental: In analogy with example 6, human T cells derived from a non-HLA-typed blood donor were stimulated with HPV16L1ΔC*E71-55 CVLPs and harvested.
The T cells were then restimulated, at 37° C. and in 100 μl of medium, with 1 μg of peptide P33/ml and 10^5 antigen-presenting cells (donor-identical BLCL) in the presence of 10 IU of IL2/ml. Cells which were only incubated with buffer served as the negative control while cells which were incubated with HPV16 L1 peptide pool served as the positive control.
as §2, with “CD8/APC,” for “CDB/APC,”

[5] = system: CVLP-stimulated human CD4-positive T cells; experiment: Restimulating HPV18 CVLP-stimulated T cells with BLCL presenting HPV18 peptide pools (example 6); format: cell-based; settings: peptide common to two reactive HPV18 pools; CD4/IFNγ
Experimental: Human T cells (4×10^5) from a non-HLA-typed blood donor were stimulated for 1 week with HPV18 L1ΔCDIE71-53DI CVLPs and HPV18 L1ΔACDIE71-60DI CVLPS, 800 U of human GM-CSF/ml and 500 U of human IL4/ml and also, for a further 5 weeks, with HPV18 L1ΔCDIE71-53DI CVLPs and HPV18 L1ΔCDIE71-6ODI CVLPs at 37° C., with the weekly addition of 1 μg of the CVLPs mixLure (ratio of the two constructs 1:1)/ml and 10^5 antigen-presenting cells (irradiated PMBC), and harvested.
The 20 mer peptides Q1 to 52 were assembled into peptide pools A to H and 1 to 7, respectively, in accordance with the matrix
The T cells were then restimulated, at 37° C. and in 100 μl of medium, with the peptide pools and 10^5 antigen-presenting cells (donor-identical BLCL) in the presence of 10 IU of IL2/ml. The quantities of the peptide pools which were used in this connection were such that. 1 μg/ml was added in the case of each individual peptide.
Cells which were only incubated with buffer served as the negative control while cells incubated with the HPV18 L1 peptide pool and the HPV18 E7 peptide pool, respectively, served as positive controls.
as §2, with “CD8/APC,” for “CDB/APC,”, “analyzed” for “examined”

[6] = system: CVLP-stimulated CD4-positive T cells; experiment: Restimulating HPV18 CVLP-stimulated T cells with BLCL presenting HPV18 peptide pools (example 12); format: cell-based, human; settings: peptide common to two reactive HPV18 pools; CD4/IFNγ
Experimental: as §1
The T cells were then restimulated, at 37° C. and in 100 μl of medium, with the HPV18 peptide pools from example 6 and 10^5 antigen-presenting cells (donor-identical BLCL) in the presence of 10 IU of IL2/ml. Use was made, in this connection, of quantities of the peptide pools which were such that 1 μg/ml was added in the case of each individual peptide. Cells which were only incubated with buffer served as the negative control while cells which were incubated with HPV18 L1 peptide pool served as the positive control.
as §2, with “CD8/APC,” for “CDB/APC,”

[7] = system: HPV18 CVLP-stimulated human T cells; experiment: Restimulating HPV18 CVLP-stimulated T cells with BLCL presenting Q38, Q39, Q46 or Q47 (example 13); format: cell-based
Experimental: In analogy with example 6, human T cells (4×10^5) derived from a non-HLA-typed blood donor were stimulated with HPV18L1ΔCDIE71-53DI CVLPs and HPV18L1ΔCDIE71-60DI CVLPs and harvested.
The T cells were then restimulated, at 37° C. and in 100 μl of medium, with in each case 1 μg of peptide Q38, Q39, Q46 or Q47/ml and 10^5 antigen-presenting cells (donor-identical BLCL) in the presence of 10 IU of IL2/ml. Cells which were only incubated with buffer served as the negative control while cells which were incubated with the HPV18 L1 peptide pool or the E7 peptide pool served as positive controls.
as §2, with “CD8/APC,” for “CDB/APC,”

## HPV16 E628-36: control peptide in the chromium release assay (TTIHDIILE; UniProt P03126 28-36, looked up, fragment)
[1]
  specific lysis: No specific lysis

## HPV16 E728-36: control peptide in the ELISpot analysis (LNDSSEEED; UniProt P03129 28-36, looked up, fragment) [reference compound]
[2]
  IFN-γ ELISpot reaction: did not induce any IFN-γ secretion

## HPV18 E77-15: control peptide; HPV18 E77-15 epitope described by Rudolf MP et al. (2001) (TLQDIVLHL; UniProt P06788 7-15, looked up, fragment)
[1]
  specific lysis: No specific lysis

## NNGVCWHNQLFVTVVDTTRS [Q30, HPV18 L1 320-339]
[3]; peptide common to pools F and 4
  T cell epitope assignment (TH1): contains a TH1 epitope
[3]; pools F or 4 or 1 μg Q30/ml compared with each other, FIG. 14
  proportion of reactive CD4-positive and IFNγ-positive T cells, confirmation experiment: comparable
Human T cells
  Epitope type: TH1

## PQRHTMLCMCCKCEARIKLV [Q49, HPV18 E7 56-75]
LKK cells; conclusion from FIG. 16 lower part
  T cell epitope assignment: H2k-restricted cytotoxic T cell epitope
LKK cells; peptide-loaded LKK cells, effector:target 20, FIG. 16 lower part
  specific lysis of target cells (51Cr release): able to efficiently lyse

## TTYKNTNFKEYLRHGEEYDL [P33, HPV16 L1 353-372]
P33-loaded RMA cells; 10 μg P33/ml, effector:target 20, T cells stimulated with peptides P1-P43, FIG. 2
  specific lysis of target cells (51Cr release): able to efficiently lyse
P33-loaded RMA cells; conclusion from FIG. 2
  T cell epitope assignment: H2b-restricted cytotoxic T cell epitope
[4]; 1 μg P33/ml, donor-identical BLCL, versus negative control, FIG. 10
  proportion of CD8-positive T cells reactive on the basis of IFNγ expression: markedly higher
[4]; conclusion from FIG. 10
  T cell epitope assignment: contains a cytotoxic T cell epitope

## VDLLCHEQLSDSEEENDEID [Q46, HPV18 E7 23-42]
[5]
  T cell epitope assignment: contain T helper epitopes
[6]
  T cell epitope assignment (TH1): contain a TH1 epitope
[7]; 1 μg peptide/ml, donor-identical BLCL, FIG. 12 top left
  proportion of reactive CD4-positive and IFNγ-positive T cells: markedly higher than in the negative control
[7]; 1 μg peptide/ml, FIG. 12 lower right
  proportion of CD8-positive and IL4-positive cells: low, and comparable to the negative control
[7]; conclusion from FIG. 12 top left
  T cell epitope assignment (TH1): contain a TH1 epitope
Human T cells
  Epitope type: TH1
